Data published in ChEMBL document CHEMBL4020749, “Phenanthridin-6-one derivatives as the first class of non-steroidal pharmacological chaperones for Niemann-Pick disease type C1 protein” (Bioorg Med Chem Lett, 2017).
The source made the active and inactive calls. The calls are words filed in the database; no cut-off is given here.

system: T1, NPC intracellular cholesterol transporter 1 (Homo sapiens), O15118 [I1061T]; test: Chaperone activity at FLAG/GFP-tagged NPC1 I1061T mutant (unknown origin) expressed in HEK293 cells assessed as increase in localization of protein mutant in late endosomes at 10 uM after 24 hrs by Hoechst 33342 staining based fluorescence microscopic analysis; type: cell-based; details: not given
T1 sequence (whole entry): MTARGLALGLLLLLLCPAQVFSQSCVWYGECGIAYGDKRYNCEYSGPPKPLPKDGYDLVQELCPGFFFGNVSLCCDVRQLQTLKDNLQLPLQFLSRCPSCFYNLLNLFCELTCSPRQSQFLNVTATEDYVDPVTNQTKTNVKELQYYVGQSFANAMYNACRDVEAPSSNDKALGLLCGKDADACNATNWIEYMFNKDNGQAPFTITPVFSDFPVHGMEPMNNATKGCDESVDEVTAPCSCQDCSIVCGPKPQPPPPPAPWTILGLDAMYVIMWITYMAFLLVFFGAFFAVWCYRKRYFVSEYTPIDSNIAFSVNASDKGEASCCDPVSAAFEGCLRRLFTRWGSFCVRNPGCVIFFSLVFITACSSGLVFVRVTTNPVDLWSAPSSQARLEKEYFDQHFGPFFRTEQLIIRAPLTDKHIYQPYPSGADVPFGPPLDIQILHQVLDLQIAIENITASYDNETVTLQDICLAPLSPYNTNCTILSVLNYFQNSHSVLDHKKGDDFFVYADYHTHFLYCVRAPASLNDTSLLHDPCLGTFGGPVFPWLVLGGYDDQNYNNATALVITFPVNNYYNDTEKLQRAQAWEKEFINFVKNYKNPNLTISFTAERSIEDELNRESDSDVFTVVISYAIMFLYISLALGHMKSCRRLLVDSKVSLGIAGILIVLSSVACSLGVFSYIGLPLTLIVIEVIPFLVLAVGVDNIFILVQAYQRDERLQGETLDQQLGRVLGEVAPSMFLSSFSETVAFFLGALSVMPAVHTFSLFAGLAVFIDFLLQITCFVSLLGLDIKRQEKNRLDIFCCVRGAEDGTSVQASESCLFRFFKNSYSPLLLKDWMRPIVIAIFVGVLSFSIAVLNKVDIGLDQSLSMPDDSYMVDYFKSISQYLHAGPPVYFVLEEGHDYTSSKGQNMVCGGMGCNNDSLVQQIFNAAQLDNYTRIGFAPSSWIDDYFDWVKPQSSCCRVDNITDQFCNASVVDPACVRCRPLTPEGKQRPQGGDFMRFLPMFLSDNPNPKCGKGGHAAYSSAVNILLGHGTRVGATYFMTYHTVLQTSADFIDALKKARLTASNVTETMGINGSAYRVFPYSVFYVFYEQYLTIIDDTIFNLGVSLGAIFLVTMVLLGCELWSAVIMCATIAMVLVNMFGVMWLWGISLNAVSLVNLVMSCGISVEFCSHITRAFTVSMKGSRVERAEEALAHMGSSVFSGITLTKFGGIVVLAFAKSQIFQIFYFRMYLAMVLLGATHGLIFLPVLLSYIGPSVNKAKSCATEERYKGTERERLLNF

Structure (SMILES)	Activity
CCCCn1c(=O)c2c(c3cc(C(N)=O)ccc31)CCCCCC2	inactive

target: NPC intracellular cholesterol transporter 1 (Homo sapiens, UniProt O15118, I1061T); test: (§1) Chaperone activity at FLAG/GFP-tagged NPC1 I1061T mutant (unknown origin) expressed in HEK293 cells assessed as increase in localization of protein mutant in late endosomes after 24 hrs by Hoechst 33342 staining based fluorescence microscopic analysis; type: cell-based; details: not given

Structure (SMILES)	EC50
COCCn1c(=O)c2ccccc2c2cc(C(N)=O)ccc21	Not Active
CC(C)n1c(=O)c2ccccc2c2cc(C(N)=O)ccc21	Not Active
CCCCCn1c(=O)c2ccccc2c2c(C(N)=O)cccc21	Not Active

Now from value to molecule:

EC50	Structure (SMILES)
Not Active	CCCCCn1c(=O)c2ccccc2c2cccc(C(N)=O)c21
Not Active	CCCCCn1c(=O)c2ccccc2c2ccc(C(N)=O)cc21
Not Active	NC(=O)c1ccc2c(c1)c1ccccc1c(=O)n2CCO

same assay, conditions: read-out: EC50

Structure (SMILES)	EC50 [µM]
CCCCn1c(=O)c2ccccc2c2cc(C(C)O)ccc21 (stereo not given)	> 30
NC(=O)c1ccc2c(c1)c1ccccc1c(=O)n2CC1CCCCC1	3.6
CCn1c(=O)c2ccccc2c2cc(C(N)=O)ccc21	> 30
C=CCn1c(=O)c2ccccc2c2cc(C(N)=O)ccc21	> 30
CCCn1c(=O)c2ccccc2c2cc(C(N)=O)ccc21	19
CCCCn1c(=O)c2c(c3cc(C(N)=O)ccc31)CCCC2	30
C[Si](C)(C)CCOCn1c(=O)c2ccccc2c2cc(C(N)=O)ccc21	16
CCCCn1c(=O)c2ccccc2c2cc(C(C)=O)ccc21	> 30
CCCCn1c(=O)c2ccccc2c2cc(CO)ccc21	> 30
CCCCn1c(=O)c2ccccc2c2cc(NS(C)(=O)=O)ccc21	14
CCCCn1c(=O)c2c(c3cc(C(N)=O)ccc31)CCCCC2	13
CCCCn1c(=O)c2ccccc2c2cc(C(=O)N(C)C)ccc21	> 30
CCCCn1c(=O)c2ccccc2c2cc(C(=O)N(CCO)CCO)ccc21	> 30

Next, values leading:

EC50 [µM]	Structure (SMILES)
> 3	CCCCCCn1c(=O)c2ccccc2c2cc(C(N)=O)ccc21
> 30	Cn1c(=O)c2ccccc2c2cc(C(N)=O)ccc21
> 30	CCCCn1c(=O)c2ccccc2c2cc(O)ccc21
4.2	CCCCCn1c(=O)c2ccccc2c2cc(C(N)=O)ccc21
14	CCCCn1c(=O)c2ccccc2c2cc(NC(C)=O)ccc21
11	CCCCn1c(=O)c2ccccc2c2cc(C(N)=O)ccc21
> 30	CCCCn1c(=O)c2ccccc2c2cc(C(=O)NC)ccc21
0.15	CC(C)CCC[C@@H](C)[C@H]1CC[C@H]2[C@@H]3C[C@@H](O)[C@@]4(O)C[C@@H](OCC(=O)N5CCOCC5)CC[C@]4(C)[C@H]3CC[C@]12C
> 3	CCCCCCCn1c(=O)c2ccccc2c2cc(C(N)=O)ccc21

system: T1, NPC intracellular cholesterol transporter 1 (Homo sapiens), O15118 [I1061T]; test: as §1; type: cell-based; details: not given

Structure (SMILES)	Activity
CCCCCn1c(=O)c2ccccc2c2cc(C(N)=O)ccc21	Dose-dependent effect

system: HEK293; test: Chaperone activity at FLAG/GFP-tagged human NPC1L1 L1072T/I1168T double mutant expressed in HEK293 cells assessed as localization of protein mutant in plasma membrane at 3 uM after 24 hrs fluorescence microscopic analysis; type: cell-based; details: not given

Structure (SMILES)	Activity
C[C@H](CCC(=O)N(C)C)[C@H]1CC[C@H]2[C@@H]3CC=C4C[C@@H](OC(=O)N(CCO)CCO)CC[C@]4(C)[C@H]3CC[C@]12C	Active

system: HEK293; test: Stabilization of FLAG/GFP-tagged human NPC1L1 L1072T/I1168T double mutant expressed in HEK293 cells assessed as up regulation of NPC1L1 L1072T/I1168T double mutant expression at 3 to 30 uM after 24 hrs fluorescence microscopic analysis; type: cell-based; details: not given

Structure (SMILES)	Activity
CCCCCn1c(=O)c2ccccc2c2cc(C(N)=O)ccc21	inactive

system: HEK293; test: Chaperone activity at FLAG/GFP-tagged human NPC1L1 L1072T/I1168T double mutant expressed in HEK293 cells assessed as localization of protein mutant in plasma membrane at 10 uM after 24 hrs fluorescence microscopic analysis; type: cell-based; details: not given

Structure (SMILES)	Activity
CCCCCn1c(=O)c2ccccc2c2cc(C(N)=O)ccc21	inactive

system: not listed separately; test: Solubility of the compound in DMEM medium at 10 uM; type: physicochemical; details: not given

Structure (SMILES)	solubility
CCCCCCn1c(=O)c2ccccc2c2cc(C(N)=O)ccc21	Insoluble
CCCCCn1c(=O)c2ccccc2c2ccc(C(N)=O)cc21	Insoluble
CCCCCn1c(=O)c2ccccc2c2c(C(N)=O)cccc21	Insoluble
CCCCCCCn1c(=O)c2ccccc2c2cc(C(N)=O)ccc21	Insoluble

system: T1, NPC intracellular cholesterol transporter 1 (Homo sapiens), O15118 [I1061T]; test: Chaperone activity at FLAG/GFP-tagged NPC1 I1061T mutant (unknown origin) expressed in HEK293 cells assessed as increase in localization of protein mutant in late endosomes at 1 uM after 24 hrs by Hoechst 33342 staining based fluorescence microscopic analysis; type: cell-based; details: not given

Structure (SMILES)	Activity
CC(C)CCC[C@@H](C)[C@H]1CC[C@H]2[C@@H]3C[C@@H](O)[C@@]4(O)C[C@@H](OCC(=O)N5CCOCC5)CC[C@]4(C)[C@H]3CC[C@]12C	Active

system: T1, NPC intracellular cholesterol transporter 1 (Homo sapiens), O15118 [I1061T]; test: Chaperone activity at FLAG/GFP-tagged NPC1 I1061T mutant (unknown origin) expressed in HEK293 cells assessed as increase in localization of protein mutant in late endosomes at 30 uM after 24 hrs by Hoechst 33342 staining based fluorescence microscopic analysis; type: cell-based; details: not given

Structure (SMILES)	Activity
CCCCn1c(=O)c2ccccc2c2cc(NC(=O)C(F)(F)F)ccc21	inactive
CCCCn1c(=O)c2ccccc2c2cc(C(=O)N3CCOCC3)ccc21	inactive
CCCCn1c(=O)c2ccccc2c2cc(C(=O)NC3CCCC3)ccc21	inactive
CCCCNC(=O)c1ccccc1-c1cccc(C(N)=O)c1	inactive
CCCCn1c(=O)c2c(c3cc(C(N)=O)ccc31)CCC2	inactive
CCCCn1c(=O)c2ccccc2c2cc(C(=O)N3CCCC3)ccc21	inactive
CCCCn1c(=O)c2ccccc2c2cc(C(F)(F)F)ccc21	inactive
CCCCN1C(=O)c2ccccc2Oc2cc(C(N)=O)ccc21	inactive
CCCCn1c(=O)c2ccccc2c2cc(C(O)(C(F)(F)F)C(F)(F)F)ccc21	inactive
CCCCn1c(=O)c2ccccc2c2cc(N(C)C(C)=O)ccc21	inactive
CCCCn1c(=O)c2ccccc2c2cc(C(=O)NC3CCCCC3)ccc21	inactive
CCCC(=O)N1CC2=C(CCCC2)c2cc(C(N)=O)ccc21	inactive
CCCCn1c(=O)c2ccccc2c2cc(C)ccc21	inactive

Next, values leading:

Activity	Structure (SMILES)
inactive	CCCCn1c(=O)c2ccccc2c2cc(C(=O)O)ccc21
inactive	O=S(=O)(c1ccccc1)N(CC(F)(F)F)c1ccc(C(O)(C(F)(F)F)C(F)(F)F)cc1
inactive	O=C(O)Cc1cccc(OCCCN(Cc2cccc(C(F)(F)F)c2Cl)CC(c2ccccc2)c2ccccc2)c1
inactive	CCCCn1c(=O)c2ccccc2c2cc(C(=O)NC(C)(C)C)ccc21
inactive	CCCCn1c(=O)c2ccccc2c2cc(OC(=O)N3CCOCC3)ccc21
inactive	CCCCN1C(=O)CCc2cc(C(N)=O)ccc21
inactive	CCCCn1c(=O)c2ccccc2c2cc(C(=O)NCc3ccccc3)ccc21
inactive	CCCCn1c(=O)c2ccccc2c2cc(C(=O)NC3CC3)ccc21
inactive	CCCCn1c(=O)c2ccccc2c2cc(N)ccc21
inactive	CCCCn1c(=O)c2ccccc2c2cc(NC(N)=O)ccc21
inactive	CCCCn1c(=O)c2ccccc2c2cc(C(=O)NC(C)C)ccc21
inactive	CCCCn1c(=O)c2ccccc2c2cc(C(=O)N3CCCCC3)ccc21
inactive	CCCCn1c(=O)c2ccccc2c2ccccc21
inactive	CCCCn1c(=O)c2ccccc2c2cc(F)ccc21
inactive	CCCCn1c(=O)c2ccccc2c2cc(C(=O)N(CC)CC)ccc21

system: not listed separately; test: Solubility of the compound in DMEM medium at 30 uM; type: physicochemical; details: not given

Structure (SMILES)	solubility
NC(=O)c1ccc2c(c1)c1ccccc1c(=O)n2CC1CCCCC1	Insoluble
CCCCCn1c(=O)c2ccccc2c2cccc(C(N)=O)c21	Insoluble
CCCCn1c(=O)c2c(c3cc(C(N)=O)ccc31)CCCCCC2	Insoluble

system: T1, NPC intracellular cholesterol transporter 1 (Homo sapiens), O15118 [I1061T]; test: Stabilization of FLAG/GFP-tagged NPC1 I1061T mutant (unknown origin) expressed in HEK293 cells assessed as up regulation of NPC1 I1061T mutant expression after 24 hrs by Hoechst 33342 staining based fluorescence microscopic analysis; type: cell-based; details: not given

Structure (SMILES)	Activity
CCCCCn1c(=O)c2ccccc2c2cc(C(N)=O)ccc21	Dose-dependent effect
